# Test results from PubChem BioAssay AID504438 (Sanford-Burnham Center for Chemical Genomics, 2011).
# Activity calls are given as the source filed them.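 Rule for the calls: active = IC50 below 20 µM in the dose response test; inactive = the rest.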
# Molecular target: Type-1 angiotensin II receptor (Homo sapiens) (UniProt P30556)
# Test: AGTR1 beta-arrestin recruitment antagonism – cell-based, CHO-K1 AGTR1, luminescence, set 4, selectivity assay for APJ receptor antagonist project, SAR follow-up (AID 504438)
# Conditions: CHO-K1 AGTR1 beta-arrestin complementation
# Type-1 angiotensin II receptor (Homo sapiens), sequence (P30556 whole entry, looked up): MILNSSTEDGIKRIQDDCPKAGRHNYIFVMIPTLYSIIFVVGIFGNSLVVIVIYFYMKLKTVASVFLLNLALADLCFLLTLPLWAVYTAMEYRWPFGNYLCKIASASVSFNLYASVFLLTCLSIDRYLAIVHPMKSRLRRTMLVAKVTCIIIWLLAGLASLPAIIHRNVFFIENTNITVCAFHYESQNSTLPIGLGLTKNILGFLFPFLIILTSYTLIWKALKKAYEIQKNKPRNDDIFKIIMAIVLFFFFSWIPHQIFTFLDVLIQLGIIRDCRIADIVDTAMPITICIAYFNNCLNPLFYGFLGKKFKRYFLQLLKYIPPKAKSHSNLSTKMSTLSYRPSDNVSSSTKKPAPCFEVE
row,SMILES,IC50
1,O=C(Oc1coc(CN2CCOCC2)cc1=O)c1ccc([N+](=O)[O-])cc1,> 79 µM (inactive)
2,O=C(Oc1coc(CN2CCOCC2)cc1=O)c1ccccc1,> 79 µM (inactive)
3,Cc1cc(C)nc(SCc2cc(=O)c(OC(=O)c3ccc(-c4nccs4)cc3)co2)n1,> 79 µM (inactive)
4,Cc1ccnc(SCc2cc(=O)c(NC(=O)c3ccc([N+](=O)[O-])cc3)co2)n1,> 79 µM (inactive)

# Next, values leading:
row,IC50,SMILES
1,> 79 µM (inactive),O=C(Oc1coc(CSc2ccc(OC(F)(F)F)cc2)cc1=O)c1ccc(Cl)c([N+](=O)[O-])c1
2,> 79 µM (inactive),O=C(Oc1coc(CSc2ccc(Cl)cc2)cc1=O)c1ccc(Cl)c([N+](=O)[O-])c1
3,> 79 µM (inactive),COc1ccc(SCc2cc(=O)c(OC(=O)c3ccc(Cl)c([N+](=O)[O-])c3)co2)cc1
4,> 79 µM (inactive),Cc1ccc(SCc2cc(=O)c(OC(=O)c3ccc(Cl)c([N+](=O)[O-])c3)co2)cc1
